The values that follow come from ChEMBL document CHEMBL2424588, “Four-membered heterocycles-containing 4-anilino-quinazoline derivatives as epidermal growth factor receptor (EGFR) kinase inhibitors” (Bioorg Med Chem Lett, 2013).

Values after ≈ are worked out from the molar mass of the structure shown.

The nature of data set [1]: Aqueous solubility of the compound at 20 degC. It is filed as physicochemical. The settings on record: water.
The nature of data set [2]: Cytotoxicity against human HCC827 cells after 72 hrs by CCK-8 assay. It counts as functional, cell-based. Particulars: HCC827, 72 h. In general terms: Tetrazolium assays rely on reduction of a dye to a coloured formazan, in cell work by metabolically active cells.
The subject of the next data set is A549. The experiment in a line: Cytotoxicity against human A549 cells after 72 hrs by CCK-8 assay. It counts as functional, cell-based. The settings on record: A549, 72 h.
In data set [3] the target is Epidermal growth factor receptor (Homo sapiens, UniProt P00533). The experiment in a line: Inhibition of wild type EGFR (unknown origin) after 24 hrs by fluorescence assay.
Sequence of Epidermal growth factor receptor (P00533 whole entry): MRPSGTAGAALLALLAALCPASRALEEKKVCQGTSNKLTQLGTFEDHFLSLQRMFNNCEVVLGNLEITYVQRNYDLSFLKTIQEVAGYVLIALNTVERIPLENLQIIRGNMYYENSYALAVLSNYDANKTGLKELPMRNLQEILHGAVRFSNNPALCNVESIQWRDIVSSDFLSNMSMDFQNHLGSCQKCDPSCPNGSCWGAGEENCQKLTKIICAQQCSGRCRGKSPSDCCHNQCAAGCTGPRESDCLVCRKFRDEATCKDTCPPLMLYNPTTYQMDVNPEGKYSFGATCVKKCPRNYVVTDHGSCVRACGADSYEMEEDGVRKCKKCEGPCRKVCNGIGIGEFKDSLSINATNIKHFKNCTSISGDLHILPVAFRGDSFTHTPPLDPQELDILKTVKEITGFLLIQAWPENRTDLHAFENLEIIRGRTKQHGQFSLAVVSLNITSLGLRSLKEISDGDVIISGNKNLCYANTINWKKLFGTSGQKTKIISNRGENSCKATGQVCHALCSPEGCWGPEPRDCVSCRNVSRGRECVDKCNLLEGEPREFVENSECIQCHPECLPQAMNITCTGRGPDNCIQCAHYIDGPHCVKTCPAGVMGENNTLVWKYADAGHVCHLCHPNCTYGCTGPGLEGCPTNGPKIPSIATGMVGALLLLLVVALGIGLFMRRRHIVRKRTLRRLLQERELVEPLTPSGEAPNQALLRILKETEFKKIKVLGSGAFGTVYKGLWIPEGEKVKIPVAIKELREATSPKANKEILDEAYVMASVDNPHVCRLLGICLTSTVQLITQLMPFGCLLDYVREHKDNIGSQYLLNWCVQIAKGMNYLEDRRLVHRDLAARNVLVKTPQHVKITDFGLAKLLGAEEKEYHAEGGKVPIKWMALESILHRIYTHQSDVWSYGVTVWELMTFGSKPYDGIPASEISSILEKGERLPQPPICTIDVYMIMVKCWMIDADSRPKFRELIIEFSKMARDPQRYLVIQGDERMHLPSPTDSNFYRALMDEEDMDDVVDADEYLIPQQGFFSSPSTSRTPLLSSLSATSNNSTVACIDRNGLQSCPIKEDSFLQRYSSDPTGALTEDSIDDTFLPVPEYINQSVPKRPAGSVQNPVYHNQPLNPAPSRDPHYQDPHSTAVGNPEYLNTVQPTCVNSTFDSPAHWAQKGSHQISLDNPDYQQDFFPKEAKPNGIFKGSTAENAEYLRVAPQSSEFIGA

Regarding `COc1cc2ncnc(Nc3ccc(F)c(Cl)c3)c2cc1OCCCN1CCC2(COC2)C1`, in data set [1], the solubility – broadly, the concentration that dissolves in the medium under given conditions – came to 33.8 µg/mL (≈ 71.5 µM). Further, the IC50 (commonly the point on the concentration scale where inhibition reaches its midpoint) is 28 nM in data set [2] and above 50 µM with A549.

`COc1cc2ncnc(Nc3ccc(F)c(Cl)c3)c2cc1OCCN1CC2(C1)CS(=O)(=O)C2` gave a solubility in data set [1] below 1 µg/mL. The IC50 in data set [2] was 154 nM; in data set [3], 158 nM; with A549, above 50 µM.

Turning to `COc1cc2ncnc(Nc3ccc(F)c(Cl)c3)c2cc1OCCN1CC2(COC2)C1`, in data set [1], the concentration in solution (solubility) was 1.4 µg/mL (≈ 3.15 µM). Further, the IC50 in data set [2] was 16 nM; in data set [3] it was 16 nM; in the data set on A549, above 50 µM.

Turning to `COc1cc2ncnc(Nc3ccc(F)c(Cl)c3)c2cc1OCCN1CC(OC)C1`, the IC50 in data set [2] is 64 nM; in data set [3], 94 nM; in the data set with A549, above 50 µM.

Turning to `COc1cc2ncnc(Nc3ccc(F)c(Cl)c3)c2cc1OCCN1CC2(CCO2)C1`, the solubility in data set [1] was below 1 µg/mL. In addition, the IC50 is 23 nM in data set [2], 190 nM in data set [3] and above 50 µM in the data set on A549.

With `COc1cc2ncnc(Nc3ccc(F)c(Cl)c3)c2cc1OCCCN1CC(OC)C1`, the IC50 in data set [2] was 42 nM; in data set [3] it was 34 nM; in the data set with A549, 25.1 µM.

In data set [1], `COc1cc2ncnc(Nc3ccc(F)c(Cl)c3)c2cc1OCCCN1CC2(CSC2)C1` had a solubility of 25.6 µg/mL (≈ 53.9 µM). Besides, the IC50 in data set [2] worked out at 50 nM; in data set [3], 48 nM; in the data set with A549, 9.5 µM.

Compound `COc1cc2ncnc(Nc3ccc(F)c(Cl)c3)c2cc1OCCCN1CC2(C1)CS(=O)(=O)C2` registered a solubility in data set [1] of 72.3 µg/mL (≈ 143 µM). For the same compound, the figures for the IC50 (in data set [2]; in data set [3]; in the data set with A549) were 389 nM, 24 nM and 25.2 µM, respectively.

The compound `COc1cc2ncnc(Nc3ccc(F)c(Cl)c3)c2cc1OCCN1CC2(CSC2)C1` showed a solubility in data set [1] below 1 µg/mL. Also, the figures for the IC50 (in data set [2]; in data set [3]; in the data set with A549) were 51 nM, 52 nM and 4.8 µM, respectively.

In data set [1], `COc1cc2ncnc(Nc3ccc(F)c(Cl)c3)c2cc1OCCCN1CC2(CCO2)C1` had a solubility of 1.2 µg/mL (≈ 2.61 µM). Further, the half-maximal inhibitory concentration (IC50) in data set [2] stood at 39 nM; in data set [3], 36 nM; with A549 it was 25.7 µM.

As for `COc1cc2ncnc(Nc3ccc(F)c(Cl)c3)c2cc1OCCCN1CC(O)C1`, the values for the IC50 (in data set [2]; in data set [3]; in the data set with A549) were 352 nM, 25 nM and above 50 µM, respectively.

In the case of `COc1cc2ncnc(Nc3ccc(F)c(Cl)c3)c2cc1OCCCN1CCOCC1` [GEFITINIB], in data set [1], the solubility came to 2.1 µg/mL (≈ 4.7 µM).

Compound `COc1cc2ncnc(Nc3ccc(F)c(Cl)c3)c2cc1OCCCN1CC2(COC2)C1` had a solubility in data set [1] of 28.3 µg/mL (≈ 61.7 µM). The IC50 in data set [2] amounted to 69 nM; in data set [3], 56 nM; in the data set on A549, 31.8 µM.

`COc1cc2ncnc(Nc3ccc(F)c(Cl)c3)c2cc1OCCN1CC(O)C1`: the IC50 in data set [2] was 116 nM; in data set [3] it was 26 nM; with A549, above 50 µM.
